According to publication PMC5706701, “Development of a homogenous high-throughput assay for inositol hexakisphosphate kinase 1 activity” (PLoS ONE, 2017):
Structures can show the parent of a compound that is named as a salt. Where two headings read alike, the source gives them in different places.

Biological target: T1, Human IP6K1 (Homo sapiens, UniProt Q92551)
T1 construct: GST (N, cleaved yes); made in house; host or cells: C43 E. coli, pGEX-6P-2
Assay: IP6K1 high-throughput screen of the Sigma LOPAC (ADP-Glo Max, single point);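 note: final compound concentration 10µM in 5% DMSO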
Format: biochemical

[1] = LOPAC single-point screen, ADP-Glo Max raw signal per well
[2] = LOPAC single-point screen, Z-score from raw signal with plate average and StDev
[3] = LOPAC single-point screen, Z-score against plate average and StDev
[4] = LOPAC single-point screen, ADP-Glo Max luminescence raw signal per well
[5] = LOPAC single-point screen, Z-score relative to plate average and StDev
[6] = LOPAC single-point screen, Z-score from plate average and StDev
[7] = Sigma LOPAC single-point screen, ADP-Glo Max raw signal per well
[8] = Sigma LOPAC single-point screen, Z-score from plate average and StDev

T1 sequence (Q92551 whole entry): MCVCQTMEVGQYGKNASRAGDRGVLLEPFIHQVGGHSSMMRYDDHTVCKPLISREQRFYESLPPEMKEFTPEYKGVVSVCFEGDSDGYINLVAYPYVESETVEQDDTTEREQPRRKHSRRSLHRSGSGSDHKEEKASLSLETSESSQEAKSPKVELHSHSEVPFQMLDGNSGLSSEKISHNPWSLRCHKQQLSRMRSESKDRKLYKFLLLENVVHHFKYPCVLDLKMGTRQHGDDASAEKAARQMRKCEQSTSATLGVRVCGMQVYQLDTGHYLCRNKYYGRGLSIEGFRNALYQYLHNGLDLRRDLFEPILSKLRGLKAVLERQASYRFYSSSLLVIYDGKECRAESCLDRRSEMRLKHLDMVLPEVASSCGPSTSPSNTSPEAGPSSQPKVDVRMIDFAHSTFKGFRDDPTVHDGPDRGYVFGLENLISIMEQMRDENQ

CN[C@@H](C)[C@H](O)c1ccccc1.CN[C@@H](C)[C@H](O)c1ccccc1.O=S(=O)(O)O [(-)-Ephedrine hemisulfate]
Raw Signal [1]: 54708
Z-score [2]: -0.09323

CCCCCCCCCCCCCCSCC(=O)O [Tetradecylthioacetic acid]
Raw Signal [1]: 56618
Z-score [3]: 0.1154

N[C@H](CO)C(=O)O [D-Serine]
Raw Signal [1]: 53973
Z-score [2]: -0.3984

Cl.c1ccc2sc(C3(N4CCCCC4)CCCCC3)cc2c1 [BTCP hydrochloride]
Raw Signal [1]: 55871
Z-score [2]: -0.3597

N[C@@H](C(=O)N[C@@H]1C(=O)N2C(C(=O)O)=C(Cl)CS[C@H]12)c1ccccc1 [Cefaclor]
Raw Signal [1]: 57158
Z-score [2]: -0.133

O=C(O)/C=C1\CCCc2ccccc2C1O (stereo not drawn) [NCS-382]
Raw Signal [4]: 49943
Z-score [5]: -0.7478

CCCCNC(=O)NS(=O)(=O)c1ccc(C)cc1 [Tolbutamide]
Raw Signal [4]: 65444
Z-score [6]: 1.83

CCCN1CCC[C@@H]2Cc3nc(N)ncc3C[C@H]21.Cl.Cl [Quinelorane dihydrochloride]
Raw Signal [4]: 53110
Z-score [5]: -0.5661

CCCn1c(=O)c2[nH]c(C3CCCC3)nc2n(CCC)c1=O [8-Cyclopentyl-1,3-dipropylxanthine]
Raw Signal [1]: 55782
Z-score [3]: 0.1249

C[N+]1(C)CCC(OC(=O)C(c2ccccc2)c2ccccc2)CC1.[I-] [4-DAMP methiodide]
Raw Signal [4]: 63096
Z-score [6]: 1.6103

C[C@]12CCC(=O)C=C1CC[C@@H]1[C@@H]2[C@@H](O)C[C@@]2(C)[C@H]1CC[C@]2(O)C(=O)CO [Hydrocortisone]
Raw Signal [1]: 54144
Z-score [2]: -0.2078

Cc1cccc(C#Cc2ccccc2)n1.Cl
Raw Signal [4]: 51049
Z-score [5]: -0.562

COc1ccccc1N1CCN(CCN(C(=O)c2ccc(F)cc2)c2ccccn2)CC1.Cl.Cl [p-MPPF dihydrochloride]
Raw Signal [1]: 52235
Z-score [2]: -0.3627

S-Nitroso-N-acetylpenicillamine
Raw Signal [1]: 52205
Z-score [2]: -0.3677

CC(=O)NBr [N-Bromoacetamide]
Raw Signal [7]: 65186
Z-score [8]: 1.281

Cl.Fc1ccc(C(OCCCc2c[nH]cn2)c2ccc(F)cc2)cc1
Raw Signal [1]: 51668
Z-score [2]: -0.458

O=C(Nc1cc(C(=O)Nc2ccc(S(=O)(=O)[O-])cc2S(=O)(=O)[O-])cc(C(=O)Nc2ccc(S(=O)(=O)[O-])cc2S(=O)(=O)[O-])c1)Nc1cc(C(=O)Nc2ccc(S(=O)(=O)[O-])cc2S(=O)(=O)[O-])cc(C(=O)Nc2ccc(S(=O)(=O)[O-])cc2S(=O)(=O)[O-])c1.[Na+].[Na+].[Na+].[Na+].[Na+].[Na+].[Na+].[Na+] [NF449 octasodium salt]
Raw Signal [4]: 9787
Z-score [5]: -7.495

O=C(CCNNC(=O)c1ccncc1)NCc1ccccc1 [Nialamide]
Raw Signal [1]: 52793
Z-score [2]: -0.2689

Brc1ccc([C@H]2CN3CCSC3=N2)cc1.O=C(O)C(=O)O [S(-)-p-Bromotetramisole oxalate]
Raw Signal [7]: 61891
Z-score [8]: 0.7006

OC[C@H]1O[C@@H](n2cnc3c(NCCc4ccccc4)ncnc32)[C@H](O)[C@@H]1O [N6-2-Phenylethyladenosine]
Raw Signal [4]: 52095
Z-score [5]: -0.7633

CC(C)(C)NCC(O)c1ccccc1Cl (stereo not drawn) [Tulobuterol hydrochloride]
Raw Signal [1]: 54303
Z-score [2]: -0.3343

Cn1c(=O)c2[nH]c(-c3ccccc3)nc2n(C)c1=O [1,3-Dimethyl-8-phenylxanthine]
Raw Signal [1]: 54517
Z-score [3]: 0.02075

CC(C)NC[C@H](O)COc1ccc(CC(N)=O)cc1 [S(-)-Atenolol]
Raw Signal [1]: 56960
Z-score [2]: -0.1679

CC(C)(Oc1ccc(C2CC2(Cl)Cl)cc1)C(=O)O (stereo not drawn) [Ciprofibrate]
Raw Signal [7]: 63809
Z-score [8]: 1.038

CNc1cc(NS(=O)(=O)c2ccc(N)cc2)nc(NC)n1.Cl.Cl [Ro 04-6790 dihydrochloride]
Raw Signal [4]: 63150
Z-score [6]: 1.384

O=C(O)c1cc2cc(F)ccc2[nH]1 [5-Fluoroindole-2-carboxylic acid]
Raw Signal: 61098
Z-score: 0.5609

Cc1nccc2c1[nH]c1ccccc12 [Harmane]
Raw Signal [4]: 51802
Z-score [5]: -0.6834

CNC(=C[N+](=O)[O-])NCCSCc1ccc(CN(C)C)o1 [Ranitidine hydrochloride]
Raw Signal [1]: 57122
Z-score [3]: 0.2134

O=C(Nc1cccc(C(=O)Nc2ccc(S(=O)(=O)O)c3cc(S(=O)(=O)O)cc(S(=O)(=O)O)c23)c1)Nc1cccc(C(=O)Nc2ccc(S(=O)(=O)O)c3cc(S(=O)(=O)O)cc(S(=O)(=O)O)c23)c1 [NF 023]
Raw Signal [4]: 39481
Z-score [5]: -2.506

C[C@H](Cc1ccc(OCC(=O)[O-])cc1)NC[C@H](O)c1cccc(Cl)c1.[Na+] [BRL 37344 sodium]
Raw Signal [4]: 53982
Z-score [5]: -0.6924

CC(C)(C)NCC(O)COc1cccc2[nH]c(=O)[nH]c12.Cl (racemic) [(±)-CGP-12177A hydrochloride]
Raw Signal [7]: 57688
Z-score [8]: 0.512

Br.CCCN(CCC)[C@@H]1CCc2ccc(O)cc2C1 [R-(+)-7-Hydroxy-DPAT hydrobromide]
Raw Signal [4]: 62909
Z-score [6]: 1.572

CN(C)CCC(c1ccc(Cl)cc1)c1ccccn1.O=C(O)/C=C\C(=O)O (racemic) [(±)-Chlorpheniramine maleate]
Raw Signal [7]: 60371
Z-score [8]: 0.4329

CCCCNc1cc(C(=O)O)cc(S(N)(=O)=O)c1Oc1ccccc1 [Bumetanide]
Raw Signal [7]: 62300
Z-score [8]: 0.7727

Oc1ncnc2[nH]ncc12 [Allopurinol]
Raw Signal [1]: 56130
Z-score [2]: -0.3141

C[N+](C)(C)CCCCCC[N+](C)(C)C [Hexamethonium bromide]
Raw Signal [1]: 55496
Z-score [3]: 0.06681

N[C@@H](CCC(=O)N[C@@H](CSN=O)C(=O)NCC(=O)O)C(=O)O [S-Nitrosoglutathione]
Raw Signal [1]: 53456
Z-score [2]: -0.1575

OC(CCN1CCCCC1)(c1ccccc1)C1CCCCC1 (stereo not drawn) [Trihexyphenidyl hydrochloride]
Raw Signal [7]: 57771
Z-score [8]: 0.3394

CN(C)CCCN1c2ccccc2Sc2ccc(Cl)cc21 [Chlorpromazine hydrochloride]
Raw Signal [7]: 63674
Z-score [8]: 1.015

C[C@@H]1O[C@@H](O[C@H]2C[C@@H](O)[C@]3(CO)[C@H]4[C@H](O)C[C@]5(C)[C@@H](C6=CC(=O)OC6)CC[C@]5(O)[C@@H]4CC[C@]3(O)C2)[C@H](O)[C@H](O)[C@H]1O [Ouabain]
Raw Signal [7]: 56928
Z-score [8]: 0.4259

O=C1Nc2ccccc2/C1=C1/Nc2ccccc2/C1=N\O [Indirubin-3 -oxime]
Raw Signal [7]: 58050
Z-score [8]: 0.5855

N[C@@H]1CONC1=O (racemic) [DL-Cycloserine]
Raw Signal [1]: 55454
Z-score [2]: -0.4331

COC(=O)[C@@H](N)Cc1ccc(O)c(O)c1.Cl
Raw Signal [4]: 38457
Z-score [5]: -3.394

O=P1(N(CCCl)CCCl)NCCCO1 (stereo not drawn) [Cyclophosphamide monohydrate]
Raw Signal: 58935
Z-score: 0.18

CCCCCCCCCCCCCCCC(=O)OC(CC(=O)O)C[N+](C)(C)C.[Cl-] (racemic) [Palmitoyl-DL-Carnitine chloride]
Raw Signal [1]: 51772
Z-score [2]: -0.4405

CCCC(=O)NCCc1c2n(c3ccc(OC)cc13)Cc1ccccc1-2 [IIK7]
Raw Signal [1]: 53632
Z-score [2]: -0.128

CCCOc1ccccc1-c1nc2nn[nH]c2c(=O)[nH]1 [Zaprinast]
Raw Signal [1]: 56198
Z-score [3]: 0.03384

O=C(O)CCC/C=C\C[C@@H]1[C@@H](/C=C/[C@H](O)C2Cc3ccccc3C2)[C@@H](F)C[C@@H]1O [AL-8810]
Raw Signal [4]: 53863
Z-score [5]: -0.7133

C[N+]1(C)[C@@H]2CC[C@H]1C[C@@H](OC(=O)C(CO)c1ccccc1)C2 (stereo partly drawn) [Atropine methyl bromide]
Raw Signal [4]: 52228
Z-score [5]: -1.0013

Cl.O=C(CCCN1CCC2(CC1)C(=O)N(CCc1ccc(N=C=S)cc1)CN2c1ccccc1)c1ccc(F)cc1
Raw Signal [1]: 54409
Z-score [3]: 0.002603

Cc1nc2sccn2c(=O)c1CCN1CCC(=C(c2ccc(F)cc2)c2ccc(F)cc2)CC1 [Ritanserin]
Raw Signal [1]: 56847
Z-score [3]: 0.1599

COc1ccccc1N1CCN(CCCNc2cc(=O)n(C)c(=O)n2C)CC1 [Urapidil hydrochloride]
Raw Signal [1]: 54926
Z-score [2]: -0.2133

NNCCc1ccccc1 [Phenelzine sulfate]
Raw Signal [7]: 58733
Z-score [8]: 0.5263

CC(C)(C)NCC(O)c1ccc(O)c(CO)c1 (stereo not drawn) [Salbutamol]
Z-score [2]: -0.2712

O=c1c2ccccc2[se]n1-c1ccccc1 [Ebselen]
Raw Signal [1]: 54986
Z-score [3]: -0.03677

CNC(=O)c1cc2c(cn1)[nH]c1ccccc12 [N-Methyl-beta-carboline-3-carboxamide]
Raw Signal [7]: 57600
Z-score [8]: 0.4941

CNCCc1ccc(O)c(O)c1.Cl [N-Methyldopamine hydrochloride]
Raw Signal [4]: 45936
Z-score [5]: -1.875

C[C@H](CS)C(=O)N1CCC[C@H]1C(=O)O [Captopril]
Raw Signal [1]: 58254
Z-score [3]: 0.06004

O=C(C1CCCCC1)N1CC(=O)N2CCc3ccccc3C2C1 (stereo not drawn) [Praziquantel]
Raw Signal [1]: 53749
Z-score [2]: -0.1083

CC(=O)C(C)=O [2,3-Butanedione]
Raw Signal [1]: 53441
Z-score [2]: -0.3505

Br.CN1CCc2cc(O)cc3c2[C@H]1Cc1ccc(O)c(O)c1-3
Raw Signal [4]: 51557
Z-score [5]: -0.7332

Cl.O[Si](CCCN1CCCCC1)(c1ccc(F)cc1)C1CCCCC1 (stereo not drawn)
Raw Signal [1]: 52920
Z-score [2]: -0.4564
